Test results from the supplement of paper PMC10307832.

How the values were obtained:
Assay in all cases: relative viability (nuclei count vs DMSO), 5 days (fraction); higher = more cells survive
NCI-H1666 = tested on: NCI-H1666
In short: (§1)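 For relative viability, nuclei counts in treated wells were divided by those in vehicle wells. Lung cancer cell lines had been pin-tool dosed in 1536-well plates the day after seeding and cultured for 5 days, then fixed and stained in one step (final 0.05% Triton X-100, 1% formaldehyde, 1 ug/ml Hoechst) and imaged at 4×. Doses were one drug alone or a fixed anchor-drug dose plus five library-drug doses (not always all listed) in √10 steps, and values are duplicate-plate medians.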

NCI-H1755 = tested on: NCI-H1755
In short: as §1

NCI-H1792 = tested on: NCI-H1792
In short: as §1

NCI-H1993 = tested on: NCI-H1993
In short: as §1

NCI-H2085 = tested on: NCI-H2085
In short: as §1

NCI-H2087 = tested on: NCI-H2087
In short: as §1

NCI-H2170 = tested on: NCI-H2170
In short: as §1

NCI-H460 = tested on: NCI-H460
In short: as §1

NCI-H520 = tested on: NCI-H520
In short: as §1

PC-14 = tested on: PC-14
In short: as §1

SK-MES-1 = tested on: SK-MES-1
In short: as §1

How did the relative viability (NCI-H1666; first compound 0.2 µM) turn out when Cc1csc(=NC2CCCCC2)n1/N=C/c1ccc(O)c(O)c1O [MIM1] + CS(=O)(=O)CCNCc1ccc(-c2ccc3ncnc(Nc4ccc(OCc5cccc(F)c5)c(Cl)c4)c3c2)o1 [Lapatinib] (partner 2 µM) was run?
The relative viability was 0.662.

And the relative viability (NCI-H1666; first compound 0.6325 µM)?
The relative viability was 0.577.

What about the relative viability (NCI-H1666; first compound 2 µM) of the same compound?
The relative viability was 0.507.

And the relative viability (NCI-H1666; first compound 6.325 µM)?
The relative viability was 0.362.

What about the relative viability (NCI-H1666; first compound 20 µM) of the same compound?
The relative viability was 0.206.

What about the relative viability (NCI-H1755; first compound 0.2 µM) of the same compound?
The relative viability was 1.04.

And the relative viability (NCI-H1755; first compound 0.6325 µM)?
Its relative viability is 0.973.

And the relative viability (NCI-H1755; first compound 2 µM)?
Its relative viability is 1.03.

What about the relative viability (NCI-H1755; first compound 6.325 µM) of the same compound?
The relative viability was 0.722.

What about the relative viability (NCI-H1755; first compound 20 µM) of the same compound?
The relative viability was 0.251.

What about the relative viability (NCI-H1792; first compound 0.2 µM) of the same compound?
Its relative viability is 0.861.

And the relative viability (NCI-H1792; first compound 0.6325 µM)?
The relative viability was 0.897.

What about the relative viability (NCI-H1792; first compound 2 µM) of the same compound?
Its relative viability is 0.983.

What about the relative viability (NCI-H1792; first compound 6.325 µM) of the same compound?
Its relative viability is 0.527.

And the relative viability (NCI-H1792; first compound 20 µM)?
The relative viability was 0.294.

And the relative viability (NCI-H1993; first compound 0.2 µM)?
Its relative viability is 0.875.

What about the relative viability (NCI-H1993; first compound 0.6325 µM) of the same compound?
Its relative viability is 0.871.

What about the relative viability (NCI-H1993; first compound 2 µM) of the same compound?
Its relative viability is 0.735.

And the relative viability (NCI-H1993; first compound 6.325 µM)?
The relative viability was 0.87.

And the relative viability (NCI-H1993; first compound 20 µM)?
Its relative viability is 0.541.

And the relative viability (NCI-H2085; first compound 0.2 µM)?
The relative viability was 0.799.

What about the relative viability (NCI-H2085; first compound 0.6325 µM) of the same compound?
Its relative viability is 0.796.

What about the relative viability (NCI-H2085; first compound 2 µM) of the same compound?
The relative viability was 0.772.

What about the relative viability (NCI-H2085; first compound 6.325 µM) of the same compound?
Its relative viability is 0.652.

What about the relative viability (NCI-H2085; first compound 20 µM) of the same compound?
The relative viability was 0.537.

And the relative viability (NCI-H2087; first compound 0.2 µM)?
The relative viability was 1.04.

And the relative viability (NCI-H2087; first compound 0.6325 µM)?
Its relative viability is 0.85.

And the relative viability (NCI-H2087; first compound 2 µM)?
Its relative viability is 0.998.

And the relative viability (NCI-H2087; first compound 6.325 µM)?
The relative viability was 0.602.

What about the relative viability (NCI-H2087; first compound 20 µM) of the same compound?
Its relative viability is 0.511.

What about the relative viability (NCI-H2170; first compound 0.2 µM) of the same compound?
The relative viability was 0.282.

What about the relative viability (NCI-H2170; first compound 0.6325 µM) of the same compound?
Its relative viability is 0.294.

And the relative viability (NCI-H2170; first compound 2 µM)?
Its relative viability is 0.26.

What about the relative viability (NCI-H2170; first compound 6.325 µM) of the same compound?
Its relative viability is 0.267.

What about the relative viability (NCI-H2170; first compound 20 µM) of the same compound?
Its relative viability is 0.258.

What about the relative viability (NCI-H460; first compound 0.2 µM) of the same compound?
The relative viability was 0.889.

What about the relative viability (NCI-H460; first compound 0.6325 µM) of the same compound?
The relative viability was 1.01.

And the relative viability (NCI-H460; first compound 2 µM)?
The relative viability was 0.351.

And the relative viability (NCI-H460; first compound 6.325 µM)?
Its relative viability is 0.256.

What about the relative viability (NCI-H460; first compound 20 µM) of the same compound?
Its relative viability is 0.0216.

And the relative viability (NCI-H520; first compound 0.2 µM)?
The relative viability was 0.823.

What about the relative viability (NCI-H520; first compound 0.6325 µM) of the same compound?
The relative viability was 0.691.

And the relative viability (NCI-H520; first compound 2 µM)?
Its relative viability is 0.924.

What about the relative viability (NCI-H520; first compound 6.325 µM) of the same compound?
The relative viability was 0.691.

What about the relative viability (NCI-H520; first compound 20 µM) of the same compound?
The relative viability was 0.269.

What about the relative viability (PC-14; first compound 0.2 µM) of the same compound?
The relative viability was 0.305.

What about the relative viability (PC-14; first compound 0.6325 µM) of the same compound?
The relative viability was 0.332.

And the relative viability (PC-14; first compound 2 µM)?
Its relative viability is 0.363.

What about the relative viability (PC-14; first compound 6.325 µM) of the same compound?
The relative viability was 0.349.

And the relative viability (PC-14; first compound 20 µM)?
The relative viability was 0.479.

What about the relative viability (SK-MES-1; first compound 0.2 µM) of the same compound?
The relative viability was 0.479.

And the relative viability (SK-MES-1; first compound 0.6325 µM)?
The relative viability was 0.441.

And the relative viability (SK-MES-1; first compound 2 µM)?
The relative viability was 0.504.

And the relative viability (SK-MES-1; first compound 6.325 µM)?
The relative viability was 0.416.

What about the relative viability (SK-MES-1; first compound 20 µM) of the same compound?
The relative viability was 0.617.
